Data set [1] deals with human ARC tissues (human chondrocytes) stimulated with TNFα, IL-1β or IL-6 + IL-6SR. Put plainly: Human ARC tissues: GAG release. In kind it is cell-based. On the procedure: Glycosaminoglycan (GAG) levels in the culture media were determined by measuring the amount of polyanionic material reacting with 1,9-dimethylmethylene blue (DME) as detected by absorbance at 525 nm, using shark chondroitin sulfate as a standard. The DME blue dye-binding solution was prepared by dissolving 16 mg of DME blue in a solution containing 0.304% glycine, 0.23% sodium chloride (NaCl), 9.5 mM hydrochloric acid (HCl), pH=3.0 with absorbance at 525 equal to 0.31. Proteoglycans and proteoglycan metabolites in chondrocyte pellet were released by digesting the pellet with 125 μg/ml of papain in 0.1 M PBS, pH 6.0, 5 mM cysteine, 5 mM ethylene-diamine-tetra-acetic acid disodium salt (Na2EDTA) at 50° C. for overnight. Results are reported as either micrograms of GAG per milliliter or percent of total GAG released into culture medium.
(§1) ® infliximab is a monoclonal antibody against human TNFα. To test whether […]® could modulate cytokine-stimulated responses in chondrocytes, human chondrocyte pellets were first tested for an optimal concentration for cytokine stimulation. Human ARC (i.e., ARCs generated using human chondrocytes) tissues were treated with various concentrations of either TNF or IL-1 for four and five days. The culture media was collected for measurement of GAG content as described above. Other assays were performed as described above. Cytokine dosage at 5 ng/ml and treatment for five days gave a reasonable treatment window, yet was not too challenging for compound efficacy (FIG. 4).
(§2) Human ARC tissues were then treated with various concentrations of […]® in the presence or absence of either 10 ng/ml of TNFα or 5 ng/ml of IL-1β for four or five days.
The efficacy of a monoclonal antibody (mAb) against human IL-6 in inhibition of proteoglycan degradation, NO production and PGE2 synthesis on human ARC tissues stimulated with IL-6 was also tested. Human ARC tissue were treated with 12.5, 25 and 250 ng/ml of IL-6 mAb diluted into chondrocyte stimulation medium. […]

The subject of data set [2] is cytokine-stimulated NO production in human ARC tissues. Put plainly: Human ARC tissues: NO production. It is filed as cell-based. The method, then: Nitrate/Nitrite levels were measured using the Griess reaction (Green L. C. et al., “Analysis of Nitrate, Nitrite, and [15N]nitrate in Biological Fluids,” Anal. Biochem. 126: 131-138 (1982)) with a Nitrate/Nitrite Colorimetric Assay Kit (Cayman Chemicals), the contents of which are incorporated herein by reference. The assay involved a simple two-step process. The first step involved conversion of nitrate in 50 μl of culture medium to nitrite utilizing nitrate reductase in a reaction volume of 100 μl at room temperature for two hours. The second step involved the addition of 50 μl of both Griess Reagent 1 and 2, which converted nitrite into a deep purple azo compound in ten minutes. Photometric measurement of the absorbance at 540 or 550 nm due to this azo chromophore accurately determined nitrite concentration. This assay kit cannot be used for RPMI (Roswell Park Memorial Institute) derived tissue culture medium due to interference with the colorimetric reaction.
as §1, §2
The efficacy of a monoclonal antibody (mAb) against human IL-6 in inhibition of proteoglycan degradation, NO production and PGE2 synthesis on human ARC tissues stimulated with IL-6 was also tested. […]

For data set [3] the following is noted: in vivo; cited from earlier work.
The subject of data set [4] is cytokine-stimulated PGE2 synthesis in human ARC tissues. In words: Human ARC tissues: PGE2 synthesis. It is filed as cell-based. Conditions: for PGE2 Inhibition, Pellet Assay: TNFα stimulated responses. The method, then:
Prostaglandin E2 (PGE2) was measured with a STAT-Prostaglandin E2 EIA ELISA kit (Cayman Biochemicals). This assay is based on the competition between PGE2 from 50 μl samples and a PGE2-alkaline phosphatase conjugate for a limited amount of PGE2 monoclonal antibody in a reaction volume of 150 μl at room temperature for one hour. The antibody-PGE2 complex bound to a goat polyclonal anti-mouse IgG that had been previously attached to the well. After washing to remove any unbound reagents, para-nitrophenyl phosphate (pNPP) was added to the well. The product of this enzymatic reaction absorbs strongly at 412 nm. Because of the large range in response to IL-1β and other cytokines, PGE2 values were converted to log scale prior to doing t-tests.
as §1, §2
The efficacy of a monoclonal antibody (mAb) against human IL-6 in inhibition of proteoglycan degradation, NO production and PGE2 synthesis on human ARC tissues stimulated with IL-6 was also tested. Human ARC tissue were treated with 12.5, 25 and 250 ng/ml of IL-6 mAb diluted into chondrocyte stimulation medium. After one hour of treatment at 37° C., ARCs were stimulated with or without 25 ng/ml IL-6, 250 ng/ml IL-6 soluble receptor (IL-6SR) or IL-6 (25 ng/ml)+L-6SR (250 ng/ml) and incubated for five days before the culture media were harvested for assays.

Data set [5] deals with annulus fibrosus and nucleus pulposus cells from bovine caudal discs treated with IL-1β. Put plainly: 3D in vitro disc cell model: GAG (DMMB). In kind it is cell-based. Conditions: 10 ng/ml IL-1β; inhibitor 1 μM, rhGDF-5 200 ng/ml. The source says: (§3) Three-dimensional in vitro annulus fibrosis (AF) and nucleus pulposus (NP) models were established to investigate proteoglycan modulation and changes in gene expression in response to inflammatory cytokines such as interleukin-1 (e.g., IL-1β) and potential therapeutic agents such as growth and differentiation factor (GDF-5), and p38 MAP kinase inhibitors. AF and NP cells from bovine caudal discs were isolated by enzymatic digestion and seeded (2×10^6 cells/cm^2) onto Millipore CM filters coated with Collagen Type II and cultured in DMEM/20% heat-inactivated FBS, 100 ug/ml ascorbic acid and 5 ng/ml TGFβ1. […] Results were evaluated by histology (Tol. Blue staining was used to observe matrix production). Dimethylmethylene blue (DMMB) was used to detect sulphated glycosaminoglycans in a GAG/DNA assay. Taqman analysis was performed on aggrecans (AGG), collagen type 1 (col-1), collagen type 2 (col-2), and MMP 3, MMP 9 and MMP 13. In FIGS. 19A-C and 20A-C, annulus fibrosus and nucleus pulposus cells from bovine caudal discs were isolated by enzymatic digestion and seeded (2×10^6 cells/cm2) onto Millipore CM filters coated with Collagen Type II and cultured in DMEM/20% heat-inactivated FBS/100 ug/ml ascorbic acid and 5 ng/ml TGF-β1.

Data set [6] has as its system aggrecan and collagen type 2 mRNA in bovine AF and NP cells. In words: 3D in vitro disc cell model: Taqman gene expression. Conditions: 10 ng/ml IL-1β; inhibitor 1 μM, rhGDF-5 200 ng/ml. In kind it is cell-based.
From the text: as §3
(Real-time PCR tracks product formation cycle by cycle.)

Where [7] appears, read: 10 ng/ml TNFα, four or five days.
Setting [8] is: at 1 ng/ml, TNFα stimulated responses.

As to “REMICADE®: monoclonal antibody against human TNFα”, the “IL-1β stimulated responses: GAG release (in words)” value in data set [1] (5 ng/ml IL-1β) is reported as “little effect”. The “TNFα-induced GAG release (in words)” value in data set [1] (setting [7]) is listed as “strongly inhibited”. In addition, the “GAG Release (inhibition), Pellet Assay” value in data set [1] (setting [8]) was determined as 100% at 1 ng/ml. The “IL-1β stimulated responses: NO production (in words)” value in data set [2] (5 ng/ml IL-1β) is recorded as “little effect”. Also, in data set [2] (setting [7]), the “TNFα-induced NO production (in words)” value is reported as “strongly inhibited”. In addition, in data set [2] (setting [8]), the “NO Inhibition, Pellet Assay” value was determined as 100% at. In data set [3], the “half-life when administered systemically” value is “about 1 week”. Also, the “IL-1β stimulated responses: PGE2 synthesis (in words)” value in data set [4] (5 ng/ml IL-1β) was “little effect”. Besides, the “TNFα-induced PGE2 synthesis (in words)” value in data set [4] (setting [7]) was “strongly inhibited”. The entries for the “PGE2 Inhibition, Pellet Assay” value in data set [4] (at 1 ng/ml) and in data set [4] (at 10 ng/ml) were 50% at 1 ng/ml and 100% at, respectively.

B1: rhGDF-5: growth and differentiation factor, member of the BMP family and TGF-beta superfamily (protein, UniProt P43026 382-501, looked up)
Growth/differentiation factor …: APLATRQGKRPSKNLKARCSRKALHVNFKDMGWDDWIIAPLEYEAFHCEGLCEFPLRSHLEPTNHAVIQTLMNSMDPESTPPTCCVPTRLSPISILFIDSANNVVYKQYEDMVVESCGCR
B1: in data set [5], the “amount of GAG in the tissue (in words)” value is reported as “restored”. Also, in data set [6], the “gene expression of Agg and Col 2 (in words)” value is “restored”.

Values taken from patent US20090162351A1, “Transdiscal administration of inhibitors of p38 MAP kinase” (DePuy Spine, Inc., priority 2007, published 2009).
